Measurements from patent US8598118B2, “Hepatocyte growth factor mimics as therapeutic agents” (Washington State University, priority 2011, dated 2013).
“And” between values parts separate entries of the source, which are not always exact repeats. Identical values can stand only once.

Legend:
hippocampal neurons [1] = assay: Spinogenesis in mRFP-β-actin transfected dissociated hippocampal neurons; format: cell-based, rat; conditions: 5 days
Protocol: (§1) Hippocampal neurons (2×10^5 cells per square cm) were cultured from P1 Sprague Dawley rats on plates coated with poly-L-lysine from Sigma (St. Louis, Mo.; molecular weight 300,000). Hippocampal neurons were maintained in Neurobasal A media from Invitrogen (Carlsbad, Calif.) supplemented with B27 from Invitrogen, 0.5 mM L-glutamine, and […] cytosine-D-arabinofuranoside from Sigma added at 2 days in vitro. Hippocampal neurons were then cultured a further 3-7 days, at which time they were either transfected or treated with various pharmacological reagents as described in (Wayman, Davare et al. 2008).
(§2) Neurons were transfected with mRFP-β-actin on day in vitro 6 (DIV6) using LipofectAMINE™ 2000 (Invitrogen) according to the manufacturer's protocol. This protocol yielded the desired 3-5% transfection efficiency thus enabling the visualization of individual neurons. Higher efficiencies obscured the dendritic arbor of individual neurons. Expression of fluorescently tagged actin allowed clear visualization of dendritic spines, as dendritic spines are enriched in actin. On DIV7 the cells were treated with vehicle (H20) or peptides (as described in the text) added to media. On DIV 12 the neurons were fixed (4% paraformaldehyde, 3% sucrose, 60 mM PIPES, 25 mM HEPES, 5 mM EGTA, 1 mM MgCl2, pH 7.4) for 20 min at room temperature and mounted. Slides were dried for at least 20 hours at 4° C. and fluorescent images were obtained with Slidebook 4.2 Digital Microscopy Software driving an Olympus IX81 inverted confocal microscope with a 60× oil immersion lens, NA 1.4 and resolution 0.280 μm Dendritic spine density was measured on primary and secondary dendrites at a distance of at least 150 μm from the soma. Five 50 μm long segments of dendrite from at least 10 neurons per data point were analyzed for each data point reported. Each experiment was repeated at least three times using independent culture preparations. Dendrite length was determined using the National Institutes of Health's Image J 1.41o program (NIH, Bethesda, Md.) and the neurite tracing program Neuron J (Meijering, Jacob et al. 2004) Spines were manually counted.
as §1, with “centimeter)” for “cm)”, “P1-2” for “P1”, “the text or figure legends.” for “(Wayman, Davare et al. 2008).”

c-Met receptor = biological target: T1, c-Met receptor (Rattus norvegicus, UniProt P97523); assay: Effect of c-Met knock-down (shMet) on spinogenesis in hippocampal neurons; format: cell-based; conditions: HGF 10 ng/ml, 48 hours
T1 construct: Dissociated hippocampal neurons were transfected with mRFP-β-actin and shMet RNA; endogenous in cells; host or cells: dissociated hippocampal neurons from P1-2 Sprague Dawley rats
Source text: as §2
A target sequence for c-Met was designed using RNAi central design program (see the website located at cancan.cshl.edu/). […]. The shRNA was transfected into cells using the lipofectamine method described above. Verification of receptor knockdown was done by creating a c-Met-6-Myc tagged gene product using the Gateway cloning system (Invitrogen). […]

hippocampal neurons [2] = assay: Whole-cell recordings of AMPA-mediated mEPSCs; format: cell-based, rat; conditions: HGF 10 ng/ml, 5 days (Example 2)
CA1 hippocampal neurons = assay: Spinogenesis in organotypic hippocampal slice cultures; format: cell-based, rat; conditions: HGF 10 ng/ml, 48 hours, organotypic slices
Protocol: (§3) Hippocampi from P4 Sprague Dawley rats were cultured as previously described (Wayman, Impey et al. 2006). Briefly, 400 μm slices were cultured on (Milipore, Billerica, Mass.) for 3 days after which they were biolistically transfected with tomato fluorescent protein (TFP) using a Helios Gen Gun (BioRad, Hercules, Calif.), according to the manufacturer's protocol, to visualize dendritic arbors. Following a 24 hour recovery period slices were stimulated with vehicle (H2O), 1 pM Nle1-AngIV or Dihexa for 2 days. Slices were fixed and mounted. Hippocampal CA1 neuronal processes were imaged and measured as described above.
as §3, with “Gene” for “Gen”, “with” for “with vehicle (H2O),”

T1 sequence (P17945 33-495 partner limits assumed): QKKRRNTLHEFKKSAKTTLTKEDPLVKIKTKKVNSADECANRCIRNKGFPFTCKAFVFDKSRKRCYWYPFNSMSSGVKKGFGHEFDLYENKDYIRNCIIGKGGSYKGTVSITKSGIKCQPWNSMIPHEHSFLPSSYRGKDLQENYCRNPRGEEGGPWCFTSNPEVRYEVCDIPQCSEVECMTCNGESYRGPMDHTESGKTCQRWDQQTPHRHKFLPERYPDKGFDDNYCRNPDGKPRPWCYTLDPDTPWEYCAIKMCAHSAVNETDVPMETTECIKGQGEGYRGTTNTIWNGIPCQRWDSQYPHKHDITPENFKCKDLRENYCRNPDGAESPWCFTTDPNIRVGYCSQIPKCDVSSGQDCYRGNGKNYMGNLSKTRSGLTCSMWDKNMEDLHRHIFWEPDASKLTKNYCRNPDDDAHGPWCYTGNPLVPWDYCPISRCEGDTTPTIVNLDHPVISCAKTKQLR
T1 sequence (P17945 496-728 partner limits assumed): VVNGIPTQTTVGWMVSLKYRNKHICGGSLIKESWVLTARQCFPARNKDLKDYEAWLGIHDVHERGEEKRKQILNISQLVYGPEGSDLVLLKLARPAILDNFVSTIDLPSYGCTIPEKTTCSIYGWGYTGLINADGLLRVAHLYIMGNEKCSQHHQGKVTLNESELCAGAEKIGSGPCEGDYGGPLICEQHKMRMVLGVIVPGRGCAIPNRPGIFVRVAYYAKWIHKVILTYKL
T1 sequence (P97523 25-1382): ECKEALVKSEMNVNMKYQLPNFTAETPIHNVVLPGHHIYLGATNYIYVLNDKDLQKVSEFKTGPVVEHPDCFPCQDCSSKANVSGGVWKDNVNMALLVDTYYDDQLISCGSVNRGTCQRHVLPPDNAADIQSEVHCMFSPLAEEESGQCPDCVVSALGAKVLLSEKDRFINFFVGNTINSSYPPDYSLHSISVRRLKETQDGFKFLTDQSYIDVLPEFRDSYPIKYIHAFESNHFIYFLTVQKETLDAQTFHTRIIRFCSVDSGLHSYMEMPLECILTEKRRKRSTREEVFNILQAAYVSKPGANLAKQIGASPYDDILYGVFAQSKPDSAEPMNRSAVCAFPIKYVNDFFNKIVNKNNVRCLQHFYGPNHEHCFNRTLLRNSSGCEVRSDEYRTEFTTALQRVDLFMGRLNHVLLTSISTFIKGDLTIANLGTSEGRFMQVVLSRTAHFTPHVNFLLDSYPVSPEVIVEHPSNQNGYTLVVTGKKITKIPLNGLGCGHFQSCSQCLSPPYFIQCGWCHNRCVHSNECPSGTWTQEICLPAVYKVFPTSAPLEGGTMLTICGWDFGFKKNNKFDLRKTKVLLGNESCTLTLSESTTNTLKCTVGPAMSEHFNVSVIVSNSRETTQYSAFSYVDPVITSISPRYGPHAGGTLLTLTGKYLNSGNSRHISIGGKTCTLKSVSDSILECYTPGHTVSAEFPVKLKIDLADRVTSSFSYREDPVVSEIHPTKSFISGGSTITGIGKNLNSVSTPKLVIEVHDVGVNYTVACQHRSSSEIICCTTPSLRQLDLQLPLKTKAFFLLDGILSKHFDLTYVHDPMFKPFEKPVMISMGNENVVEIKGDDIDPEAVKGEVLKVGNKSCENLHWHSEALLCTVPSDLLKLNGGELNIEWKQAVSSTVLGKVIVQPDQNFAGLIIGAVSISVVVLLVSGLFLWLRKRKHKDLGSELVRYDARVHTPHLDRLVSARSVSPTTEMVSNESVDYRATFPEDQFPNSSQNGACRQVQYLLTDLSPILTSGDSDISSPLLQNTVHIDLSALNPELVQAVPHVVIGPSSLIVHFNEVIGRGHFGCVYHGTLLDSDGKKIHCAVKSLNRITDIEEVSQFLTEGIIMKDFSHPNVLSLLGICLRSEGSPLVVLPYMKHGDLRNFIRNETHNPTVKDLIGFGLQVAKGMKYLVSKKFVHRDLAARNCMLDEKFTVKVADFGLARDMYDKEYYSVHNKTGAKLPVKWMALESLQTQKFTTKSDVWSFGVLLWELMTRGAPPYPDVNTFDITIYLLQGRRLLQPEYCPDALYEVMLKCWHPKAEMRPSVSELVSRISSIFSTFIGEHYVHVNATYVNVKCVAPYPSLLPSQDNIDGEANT

- mean spine numbers per 50 μm dendrite length (c-Met receptor; neurons transfected with mRFP-β-actin alone): 20.6
- mean spine numbers per 50 μm dendrite length (c-Met receptor; neurons transfected with mRFP-β-actin and shMet): 12.4
Substance: HGF: carrier free adult recombinant Hepatocyte Growth Factor (R and D Systems)
- mean spine numbers (hippocampal neurons [1]; HGF 2.5 ng/ml): 18.6 and 16.5
- mean spine numbers (hippocampal neurons [1]; HGF 5 ng/ml): 24.7
- mean spine numbers per 50 μm dendrite length (hippocampal neurons [1]; HGF 10 ng/ml): 27.5 and 33 and 29.3
- mean spine numbers (hippocampal neurons [1]; HGF 20 ng/ml): 27.0
- mean frequency of mEPSCs (hippocampal neurons [2]): 7.09±0.53 and 9.66±0.20
- number of spines per 50 μm dendrite length, CA1 neurons (CA1 hippocampal neurons): 18.5
